# Data from patent US10167262B2, “Herbicidal substituted 3-arylpyrazoles” (FMC CORPORATION, priority 2014, dated 2019).
# Columns and labels:
# Type in all cases: in vivo
# kochia (Kochia scoparia) = assay: Test C postemergence greenhouse test, plant response rating 0-100; settings: for Plant response rating, Kochia: scale 0 to 100
# In short: (§1)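 Formulated compounds applied postemergence; plants 1- to 4-leaf stage. Evaluated visually vs. untreated controls after roughly two weeks (13–15 d) under greenhouse conditions; 100 denotes complete control.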
# [1] = tested on: chickweed (common chickweed, Stellaria media); assay: as above; settings: for Plant response rating, Chickweed: scale 0 to 100
# In short: as §1
# wild oat (Avena fatua) = assay: as above; settings: for Plant response rating, Oat, Wild: scale 0 to 100
# In short: as §1
# [2] = tested on: wheat (Triticum aestivum); assay: Test A pre-/postemergence greenhouse herbicide test, visual injury rating 0-100
# In short: (§2)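 Scale 0–100 (none to complete control), visual, versus untreated controls after approx. 10 greenhouse days. Pre: directed soil spray at planting. Post: 2–10 cm, one- to two-leaf plants. Non-phytotoxic solvent plus surfactant vehicle.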
# [3] = tested on: velvetleaf (Abutilon theophrasti); assay: as above
# In short: as §2
# [4] = tested on: giant foxtail (Setaria faberii); assay: as above
# In short: as §2
# [5] = tested on: large (Lg) crabgrass (Digitaria sanguinalis); assay: as above
# In short: as §2
# [6] = tested on: pigweed (Amaranthus retroflexus); assay: as above
# In short: as §2
# [7] = tested on: morningglory (Ipomoea spp.); assay: as above
# In short: as §2
# corn (Zea mays) = assay: as above
# In short: as §2
# [8] = tested on: barnyardgrass (Echinochloa crus-galli); assay: as above
# In short: as §2
# [9] = tested on: blackgrass (Alopecurus myosuroides); assay: Test C pre-/postemergence greenhouse test, plant response rating 0-100; settings: Postemergence; for Plant response rating, Blackgrass: scale 0 to 100
# In short: (§3)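 Pre-emergence soil and post-emergence foliar sprays were applied simultaneously to seeded loam–sand pots and to 1–4-leaf plants in peat medium; greenhouse holding lasted 13–15 days, then plants were scored visually from 0 (no effect) to 100 (complete control).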
# [10] = tested on: ragweed (common ragweed, Ambrosia elatior); assay: as above; settings: Postemergence; for Plant response rating, Ragweed: scale 0 to 100
# In short: as §3
smiles,measurement,setting,value
Clc1cc(Cl)cc(-c2n[nH]cc2C(=NNc2ccccc2Cl)c2ccccc2)c1 [Compound 66],"Plant response rating (0 to 100), Kochia",kochia (Kochia scoparia); 62 g ai/ha,60
same,"Plant response rating (0 to 100), Kochia",kochia (Kochia scoparia); 125 g ai/ha,65
same,"Plant response rating, Kochia",kochia (Kochia scoparia); 250 g ai/ha,75
same,"Plant response rating, Kochia",kochia (Kochia scoparia); 500 g ai/ha,95
same,"Plant response rating (0 to 100), Chickweed",[1]; 62 g ai/ha,100
same,"Plant response rating (0 to 100), Chickweed",[1]; 125 g ai/ha,100
same,"Plant response rating, Chickweed",[1]; 250 g ai/ha,100
same,"Plant response rating, Chickweed",[1]; 500 g ai/ha,100
same,"Plant response rating (0 to 100), Oat, Wild",wild oat (Avena fatua); 62 g ai/ha,0
same,"Plant response rating (0 to 100), Oat, Wild",wild oat (Avena fatua); 125 g ai/ha,0
same,"Plant response rating, Oat, Wild",wild oat (Avena fatua); 250 g ai/ha,0
same,"Plant response rating, Oat, Wild",wild oat (Avena fatua); 500 g ai/ha,0
same,"Plant response rating (0 to 100 scale), Wheat","[2]; Postemergence, 1000 g ai/ha",0
same,"Plant response rating (0 to 100 scale), Wheat","[2]; Preemergence, 1000 g ai/ha",0
same,"Plant response rating (0 to 100 scale), Velvetleaf","[3]; Postemergence, 1000 g ai/ha",90
same,"Plant response rating (0 to 100 scale), Velvetleaf","[3]; Preemergence, 1000 g ai/ha",80
same,"Plant response rating (0 to 100 scale), Foxtail, Giant","[4]; Postemergence, 1000 g ai/ha",0
same,"Plant response rating (0 to 100 scale), Foxtail, Giant","[4]; Preemergence, 1000 g ai/ha",0
same,"Plant response rating (0 to 100 scale), Crabgrass, Large","[5]; Postemergence, 1000 g ai/ha",0
same,"Plant response rating (0 to 100 scale), Crabgrass, Large","[5]; Preemergence, 1000 g ai/ha",0
same,"Plant response rating (0 to 100 scale), Pigweed","[6]; Postemergence, 1000 g ai/ha",80
same,"Plant response rating (0 to 100 scale), Pigweed","[6]; Preemergence, 1000 g ai/ha",80
same,"Plant response rating (0 to 100 scale), Morningglory","[7]; Postemergence, 1000 g ai/ha",0
same,"Plant response rating (0 to 100 scale), Morningglory","[7]; Preemergence, 1000 g ai/ha",0
same,"Plant response rating (0 to 100 scale), Corn","corn (Zea mays); Postemergence, 1000 g ai/ha",0
same,"Plant response rating (0 to 100 scale), Corn","corn (Zea mays); Preemergence, 1000 g ai/ha",0
same,"Plant response rating (0 to 100 scale), Barnyardgrass","[8]; Postemergence, 1000 g ai/ha",0
same,"Plant response rating (0 to 100 scale), Barnyardgrass","[8]; Preemergence, 1000 g ai/ha",0
same,"Plant response rating (0 to 100), Blackgrass",[9]; 62 g ai/ha,0
same,"Plant response rating (0 to 100), Blackgrass",[9]; 125 g ai/ha,0
same,"Plant response rating, Blackgrass",[9]; 250 g ai/ha,0
same,"Plant response rating, Blackgrass",[9]; 500 g ai/ha,0
same,"Plant response rating (0 to 100), Ragweed",[10]; 62 g ai/ha,10
same,"Plant response rating (0 to 100), Ragweed",[10]; 125 g ai/ha,80
same,"Plant response rating, Ragweed",[10]; 500 g ai/ha,95
CC(C)n1cc(C(=O)c2ccccc2)c(-c2cc(Cl)cc(Cl)c2)n1 [Compound 44],"Plant response rating (0 to 100), Kochia",kochia (Kochia scoparia); 62 g ai/ha,55
same,"Plant response rating (0 to 100), Kochia",kochia (Kochia scoparia); 125 g ai/ha,65
same,"Plant response rating, Kochia",kochia (Kochia scoparia); 250 g ai/ha,65
same,"Plant response rating (0 to 100), Chickweed",[1]; 31 g ai/ha,20
same,"Plant response rating (0 to 100), Chickweed",[1]; 62 g ai/ha,35
same,"Plant response rating, Chickweed",[1]; 250 g ai/ha,50
same,"Plant response rating (0 to 100), Oat, Wild",wild oat (Avena fatua); 62 g ai/ha,0
same,"Plant response rating (0 to 100), Oat, Wild",wild oat (Avena fatua); 125 g ai/ha,0
same,"Plant response rating, Oat, Wild",wild oat (Avena fatua); 250 g ai/ha,0
same,"Plant response rating (0 to 100 scale), Wheat","[2]; Postemergence, 125 g ai/ha",0
same,"Plant response rating (0 to 100 scale), Wheat","[2]; Postemergence, 500 g ai/ha",0
same,"Wheat plant response rating (0 = no effect, 100 = complete control)","[2]; Preemergence, 125 g ai/ha",0
same,"Plant response rating (0 to 100 scale), Wheat","[2]; Preemergence, 500 g ai/ha",0
same,"Plant response rating (0 to 100 scale), Velvetleaf","[3]; Postemergence, 125 g ai/ha",90
same,"Plant response rating (0 to 100 scale), Velvetleaf","[3]; Postemergence, 500 g ai/ha",90
same,"Velvetleaf plant response rating (0 = no effect, 100 = complete control)","[3]; Preemergence, 125 g ai/ha",20
same,"Plant response rating (0 to 100 scale), Velvetleaf","[3]; Preemergence, 500 g ai/ha",40
same,"Plant response rating (0 to 100 scale), Foxtail, Giant","[4]; Postemergence, 125 g ai/ha",0
same,"Plant response rating (0 to 100 scale), Foxtail, Giant","[4]; Postemergence, 500 g ai/ha",0
same,"Foxtail, Giant plant response rating (0 = no effect, 100 = complete control)","[4]; Preemergence, 125 g ai/ha",0
same,"Plant response rating (0 to 100 scale), Foxtail, Giant","[4]; Preemergence, 500 g ai/ha",0
same,"Plant response rating (0 to 100 scale), Crabgrass, Large","[5]; Postemergence, 125 g ai/ha",0
same,"Plant response rating (0 to 100 scale), Crabgrass, Large","[5]; Postemergence, 500 g ai/ha",0
same,"Crabgrass, Large plant response rating (0 = no effect, 100 = complete control)","[5]; Preemergence, 125 g ai/ha",0
same,"Plant response rating (0 to 100 scale), Crabgrass, Large","[5]; Preemergence, 500 g ai/ha",0
same,"Plant response rating (0 to 100 scale), Pigweed","[6]; Postemergence, 125 g ai/ha",80
same,"Plant response rating (0 to 100 scale), Pigweed","[6]; Postemergence, 500 g ai/ha",100
same,"Pigweed plant response rating (0 = no effect, 100 = complete control)","[6]; Preemergence, 125 g ai/ha",0
same,"Plant response rating (0 to 100 scale), Pigweed","[6]; Preemergence, 500 g ai/ha",70
same,"Morningglory plant response rating (0 = no effect, 100 = complete control)","[7]; Preemergence, 125 g ai/ha",0
same,"Plant response rating (0 to 100 scale), Morningglory","[7]; Preemergence, 500 g ai/ha",0
same,"Plant response rating (0 to 100 scale), Corn","corn (Zea mays); Postemergence, 125 g ai/ha",0
same,"Plant response rating (0 to 100 scale), Corn","corn (Zea mays); Postemergence, 500 g ai/ha",0
same,"Corn plant response rating (0 = no effect, 100 = complete control)","corn (Zea mays); Preemergence, 125 g ai/ha",0
same,"Plant response rating (0 to 100 scale), Corn","corn (Zea mays); Preemergence, 500 g ai/ha",0
same,"Plant response rating (0 to 100 scale), Barnyardgrass","[8]; Postemergence, 125 g ai/ha",0
same,"Plant response rating (0 to 100 scale), Barnyardgrass","[8]; Postemergence, 500 g ai/ha",0
same,"Barnyardgrass plant response rating (0 = no effect, 100 = complete control)","[8]; Preemergence, 125 g ai/ha",0
same,"Plant response rating (0 to 100 scale), Barnyardgrass","[8]; Preemergence, 500 g ai/ha",0
same,"Plant response rating (0 to 100), Blackgrass",[9]; 31 g ai/ha,0
same,"Plant response rating (0 to 100), Blackgrass",[9]; 62 g ai/ha,0
same,"Plant response rating (0 to 100), Blackgrass",[9]; 125 g ai/ha,0
same,"Plant response rating, Blackgrass",[9]; 250 g ai/ha,0
same,"Plant response rating (0 to 100), Ragweed",[10]; 62 g ai/ha,5
same,"Plant response rating (0 to 100), Ragweed",[10]; 125 g ai/ha,5
same,"Plant response rating, Ragweed",[10]; 250 g ai/ha,10
